# Laboratory results taken from article PMC4230938, “A High-Yield Co-Expression System for the Purification of an Intact Drs2p-Cdc50p Lipid Flippase Complex, Critically Dependent on and Stabilized by Phosphatidylinositol-4-Phosphate” (PLoS ONE, 2014).
# B1: Drs2p-Cdc50p complex (Saccharomyces cerevisiae S288C) (protein)
# chain: MNDDRETPPKRKPGEDDTLFDIDFLDDTTSHSGSRSKVTNSHANANYIPPSHVLPEETIDLDADDDNIENDVHENLFMSNNHDDQTSWNANRFDSDAYQPQSLRAVKPPGLFARFGNGLKNAFTFKRKKGPESFEMNHYNAVTNNELDDNYLDSRNKFNIKILFNRYILRKNVGDAEGNGEPRVIHINDSLANSSFGYSDNHISTTKYNFATFLPKFLFQEFSKYANLFFLCTSAIQQVPHVSPTNRYTTIGTLLVVLIVSAMKECIEDIKRANSDKELNNSTAEIFSEAHDDFVEKRWIDIRVGDIIRVKSEEPIPADTIILSSSEPEGLCYIETANLDGETNLKIKQSRVETAKFIDVKTLKNMNGKVVSEQPNSSLYTYEGTMTLNDRQIPLSPDQMILRGATLRNTAWIFGLVIFTGHETKLLRNATATPIKRTAVEKIINRQIIALFTVLIVLILISSIGNVIMSTADAKHLSYLYLEGTNKAGLFFKDFLTFWILFSNLVPISLFVTVELIKYYQAFMIGSDLDLYYEKTDTPTVVRTSSLVEELGQIEYIFSDKTGTLTRNIMEFKSCSIAGHCYIDKIPEDKTATVEDGIEVGYRKFDDLKKKLNDPSDEDSPIINDFLTLLATCHTVIPEFQSDGSIKYQAASPDEGALVQGGADLGYKFIIRKPNSVTVLLEETGEEKEYQLLNICEFNSTRKRMSAIFRFPDGSIKLFCKGADTVILERLDDEANQYVEATMRHLEDYASEGLRTLCLAMRDISEGEYEEWNSIYNEAATTLDNRAEKLDEAANLIEKNLILIGATAIEDKLQDGVPETIHTLQEAGIKIWVLTGDRQETAINIGMSCRLLSEDMNLLIINEETRDDTERNLLEKINALNEHQLSTHDMNTLALVIDGKSLGFALEPELEDYLLTVAKLCKAVICCRVSPLQKALVVKMVKRKSSSLLLAIGDGANDVSMIQAAHVGVGISGMEGMQAARSADIAVGQFKFLKKLLLVHGSWSYQRISVAILYSFYKNTALYMTQFWYVFANAFSGQSIMESWTMSFYNLFFTVWPPFVIGVFDQFVSSRLLERYPQLYKLGQKGQFFSVYIFWGWIINGFFHSAIVFIGTILIYRYGFALNMHGELADHWSWGVTVYTTSVIIVLGKAALVTNQWTKFTLIAIPGSLLFWLIFFPIYASIFPHANISREYYGVVKHTYGSGVFWLTLIVLPIFALVRDFLWKYYKRMYEPETYHVIQEMQKYNISDSRPHVQQFQNAIRKVRQVQRMKKQRGFAFSQAEEGGQEKIVRMYDTTQKRGKYGELQDASANPFNDNNGLGSNDFESAEPFIENPFADGNQNSNRFSSSRDDISFDI
# notes: full-length, co-expressed in yeast W303.1b/GAL4; N-terminal Bad tag (Drs2p) and His10 tag (Cdc50p) cut by TEV, Gly plus four-Gly linker left; 154,050 Da Drs2p, 45,136 Da unglycosylated Cdc50p; glycosylated; 1:1 complex in DDM; with Cell division control protein 50
# B2: Cdc50p, tag-free after TEV cleavage (natural protein, S. cerevisiae, UniProt P25656 1-391, looked up)
# chain: MVSLFKRGKAPPLTKEGPTSKKPPNTAFRQQRLKAWQPILSPQSVLPLLIFVACIFTPIGIGLIVSATKVQDLTIDYSHCDTKASTTAFEDIPKKYIKYHFKSKVENKPQWRLTENENGEQSCELQFEIPNDIKKSIFIYYKITNFYQNHRRYVQSFDTKQILGEPIKKDDLDTSCSPIRSREDKIIYPCGLIANSMFNDTFSQVLSGIDDTEDYNLTNKHISWSIDRHRFKTTKYNASDIVPPPNWMKKYPDGYTDENLPDIHTWEEFQVWMRTAAFPKFYKLTLKNESASLPKGKYQMNIELNYPISLFGGTKSFVLTTNGAIGGRNMSLGVLYLIVAGLCALFGIIFLVKLIFQPRAMGDHTYLNFDDEENEDYEDVHAENTTLREIL
# modifications: glycosylated
# notes: Cdc50p, accessory subunit of Drs2p; recombinant non-glycosylated mass 45,136 Da including the linker glycines; also called glycosylated Cdc50p; source: S. cerevisiae W303.1b/GAL4, co-expressed with Drs2p, purified with it (streptavidin-Sepharose, TEV elution, Ni2+-TED; SEC); not shown: His10, N-terminal, cleaved
# Key:
# Drs2p-Cdc50p complex [1] = biological target: T1, Drs2p-Cdc50p complex (Saccharomyces cerevisiae, UniProt P39524); test: ATPase activity, colorimetric Pi release; format: biochemical; settings: inhibitor; 1 h pre-incubation on ice; 1 mM ATP, 0.025 mg/mL PI4P, 0.05 mg/mL POPS, 1 mg/mL DDM, pH 7, 30 °C; printed only as a range
# T1 construct: gene DRS2; full-length, co-expressed in yeast W303.1b/GAL4; N-terminal Bad tag (Drs2p) and His10 tag (Cdc50p) cut by TEV, Gly plus four-Gly linker left; 154,050 Da Drs2p, 45,136 Da unglycosylated Cdc50p; glycosylated; 1:1 complex in DDM; with Cell division control protein 50
# T1 sequence (P39524 1-1355): B1 chain
# T1 sequence (P25656 1-391 partner): B2 chain
# Drs2p-Cdc50p complex [2] = biological target: T1, Drs2p-Cdc50p complex; test: ATPase activity, colorimetric Pi release; format: biochemical; settings: transported lipid stimulating ATPase; 0.025 mg/mL PI4P, 1 mM Mg-ATP, 1 mg/mL DDM, pH 7, 30 °C; residual PS from purification present; read-out: [PS]1/2
# Drs2p-Cdc50p complex [3] = biological target: T1, Drs2p-Cdc50p complex; test: ATPase activity of complex purified without PS; format: biochemical; settings: lipid stimulation at 0.05 mg/mL; 0.025 mg/mL PI4P, 1 mM Mg-ATP, 1 mg/mL DDM, pH 7, 30 °C
# [4] = substrate: Nc1ncnc2c1ncn2[C@@H]1O[C@H](COP(=O)(O)OP(=O)(O)OP(=O)(O)O)[C@@H](O)[C@H]1O; test: ATPase activity, colorimetric Pi release; format: biochemical, Saccharomyces cerevisiae; settings: 0.025 mg/mL PI4P, 0.05 mg/mL POPS, 1 mg/mL DDM, ATP-regenerating system, pH 7, 30 °C
# [5] = biological target: T2, Drs2p, tag-free after TEV cleavage (S. cerevisiae, UniProt P39524 1-1355); test: in-gel fluorescence of haloalkane-modified Trp residues after SDS-PAGE; band intensities of Drs2p and Cdc50p in the streptavidin-purified complex, 4-20% gradient gel; settings: both partners purified
# T2 construct: Drs2p, yeast P4-ATPase; theoretical mass of the recombinant protein 154,050 Da; also called purified Drs2p; source: S. cerevisiae W303.1b/GAL4, co-expressed with Cdc50p, purified (streptavidin-Sepharose, TEV elution, Ni2+-TED; SEC); not shown: Bad (Biotin Acceptor Domain), N-terminal, cleaved
# T2 sequence (looked up): B1 chain
molecule,measurement,setting,value
[O]=[V]([OH])([OH])[OH] [orthovanadate],KI,Drs2p-Cdc50p complex [1],"vanadate had a rather poor KI, in the millimolar range (Figure 7E)"
"CCCCCCCC/C=C\CCCCCCCC(=O)O[C@H](COC(=O)CCCCCCCCCCCCCCC)COP(=O)(O)OC[C@H](N)C(=O)O [POPS, 1-palmitoyl-2-oleoyl-sn-glycero-3-phospho-L-serine]",Km,Drs2p-Cdc50p complex [2],> 26.2 µM
"CCCCCCCCCCCCCC(=O)OC[C@H](COP(=O)(O)OC[C@H](N)C(=O)O)OC(=O)CCCCCCCCCCCCC [DMPS, 1,2-dimyristoyl-sn-glycero-3-phospho-L-serine]",ATPase activity of complex purified without PS,Drs2p-Cdc50p complex [3],"PS had the largest stimulating effect, irrespective of its fatty acyl chain (POPS or DMPS)"
"CCCCCCCC/C=C\CCCCCCCC(=O)O[C@H](COC(=O)CCCCCCCCCCCCCCC)COP(=O)(O)OCCN [POPE, 1-palmitoyl-2-oleoyl-sn-glycero-3-phosphoethanolamine]",ATPase activity of complex purified without PS,Drs2p-Cdc50p complex [3],"POPC only had a slightly stimulating effect, POPE had a larger one"
B1,K0.5,[4],10 µM
B2,stoichiometry N,[5],1 Drs2p:Cdc50p (mol:mol)
